According to ChEMBL document CHEMBL5050855, “Mettl16 inhibitors and uses thereof” (2021):
Blank lines part the entries; values can stand above or below the molecule they belong to. The source made the active and inactive calls. No cut-off for these calls is given here.

How the values were obtained:
[1] = Antiproliferative activity against human MA9.3RAS cells after 72 hrs by MTT assay; assay type: functional, cell-based
U-937 [2] = assay: Antiproliferative activity against human U-937 cells after 72 hrs by MTT assay; assay type: functional, cell-based; conditions: U-937, 72 h
[3] = Antiproliferative activity against human MA9.3ITD cells after 72 hrs by MTT assay; assay type: functional, cell-based
NOMO-1 = assay: Antiproliferative activity against human NOMO-1 cells after 72 hrs by MTT assay; assay type: functional, cell-based; conditions: NOMO-1, 72 h
HEL = assay: Antiproliferative activity against human HEL cells after 72 hrs by MTT assay; assay type: functional, cell-based
COLO357 = assay: Antiproliferative activity against human COLO357 cells after 72 hrs by MTT assay; assay type: functional, cell-based; conditions: COLO357, 72 h
CA46 = assay: Antiproliferative activity against human CA46 cells after 72 hrs by MTT assay; assay type: functional, cell-based; conditions: CA46, 72 h
MA9.3RAS = assay: Inhibition of METTL16 in human MA9.3RAS cells at 10 to 20 nM assessed as increase in global m6A levels measured after 48 hrs; assay type: cell-based; conditions: dose 10-20 nM
U-937 [4] = assay: Binding affinity towards METTL16 in human U-937 cells at 0.1 to 500 uM and measured by cellular thermal shift assay (CETSA); assay type: cell-based; conditions: dose 0.1-500 µM
LN-229 = assay: Antiproliferative activity against human LN-229 cells after 72 hrs by MTT assay; assay type: functional, cell-based; conditions: LN-229, 72 h
HL-60 = assay: Antiproliferative activity against human HL-60 cells after 72 hrs by MTT assay; assay type: functional, cell-based; conditions: HL-60, 72 h
Kasumi 1 [5] = assay: Antiproliferative activity against human Kasumi 1 cells after 72 hrs by MTT assay; assay type: functional, cell-based; conditions: Kasumi 1, 72 h
U-937 [6] = assay: Inhibition of METTL16 in human U-937 cells at 10 to 20 nM assessed as increase in global m6A levels measured after 48 hrs; assay type: cell-based; conditions: dose 10-20 nM
HeLa = assay: Antiproliferative activity against human HeLa cells after 72 hrs by MTT assay; assay type: functional, cell-based
Kasumi 1 [7] = assay: Inhibition of METTL16 in human Kasumi 1 cells at 10 to 20 nM assessed as increase in global m6A levels measured after 48 hrs; assay type: cell-based; conditions: dose 10-20 nM
U-937 [8] = assay: Binding affinity towards METTL16 in human U-937 cells at 0.1 to 500 uM and measured by drug affinity responsive target stability (DARTS) assay; assay type: cell-based; conditions: dose 0.1-500 µM
U-87 MG = assay: Antiproliferative activity against human U-87 MG cells after 72 hrs by MTT assay; assay type: functional, cell-based, U-87MG ATCC
T98G = assay: Antiproliferative activity against human T98G cells after 72 hrs by MTT assay; assay type: functional, cell-based
MONO-MAC-6 = assay: Antiproliferative activity against human MONO-MAC-6 cells after 72 hrs by MTT assay; assay type: functional, cell-based; conditions: MONO-MAC-6, 72 h
A 172 = assay: Antiproliferative activity against human A-172 cells after 72 hrs by MTT assay; assay type: functional, cell-based; conditions: A 172, 72 h
SUP-B15 = assay: Antiproliferative activity against human SUP-B15 cells after 72 hrs by MTT assay; assay type: functional, cell-based; conditions: SUP-B15, 72 h
RS4-11 = assay: Antiproliferative activity against human RS4-11 cells after 72 hrs by MTT assay; assay type: functional, cell-based; conditions: RS4-11, 72 h
DG-75 = assay: Antiproliferative activity against human DG-75 cells after 72 hrs by MTT assay; assay type: functional, cell-based; conditions: DG-75, 72 h

IC50 (U-937 [2]): 36 nM
Structure (SMILES): Nc1ccc(CO)c(Cn2ccc3c4c(N)nc(N)nc4ccc32)c1
IC50 [1]: 70 nM | IC50 [3]: 54 nM | IC50 (NOMO-1): 55 nM

IC50 (U-937 [2]): 23 nM
Structure (SMILES): Nc1ccc(Cn2ccc3c4c(N)nc(N)nc4ccc32)c(CO)c1
IC50 [1]: 45 nM | IC50 [3]: 47 nM

IC50 (COLO357): 1030 nM | IC50 (U-937 [2]): 9.63 nM | IC50 (HL-60): 32.6 nM | IC50 (HeLa): 64 nM | IC50 (U-87 MG): 20900 nM | IC50 (RS4-11): 37 nM
Structure (SMILES): Nc1ccc(Cn2ccc3c4c(N)nc(N)nc4ccc32)cc1
IC50 [1]: 16.1 nM | IC50 (HEL): 15.4 nM | IC50 (CA46): 109 nM | inhibition (MA9.3RAS): Active | Activity (U-937 [4]): Active | IC50 (LN-229): 558 nM | IC50 (Kasumi 1 [5]): 13 nM | inhibition (U-937 [6]): Active | IC50 [3]: 15.7 nM | inhibition (Kasumi 1 [7]): Active | Activity (U-937 [8]): Active | IC50 (T98G): 10800 nM | IC50 (MONO-MAC-6): 28 nM | IC50 (A 172): 682 nM | IC50 (SUP-B15): 13 nM | IC50 (DG-75): 44 nM
